{"source": "patent US6043241A", "about": "“Ketoacid endothelin antagonists” (Warner-Lambert Company, priority 1998, dated 2000)", "key": {"[1]": {"test_system": "pulmonary hypertension", "conditions": "rat hypoxia model; cited from earlier work"}, "[2]": {"test_system": "early cerebral vasospasm", "conditions": "in vivo; cited from earlier work"}, "[3]": {"test_system": "ET-1-induced changes in gastric mucosal hemodynamics", "conditions": "in vivo; cited from earlier work"}, "[4]": {"test_system": "acute renal ischemia", "conditions": "in vivo; cited from earlier work"}, "[5]": {"test_system": "chronic heart failure", "conditions": "patients with chronic heart failure; cited from earlier work"}, "[6]": {"molecular_target": "T1, human ETA R (Homo sapiens, UniProt P25101)", "T1 construct": "expressed in transfected cells; host or cells: Ltk- cells (membranes)", "T1 sequence (P25101 21-427)": "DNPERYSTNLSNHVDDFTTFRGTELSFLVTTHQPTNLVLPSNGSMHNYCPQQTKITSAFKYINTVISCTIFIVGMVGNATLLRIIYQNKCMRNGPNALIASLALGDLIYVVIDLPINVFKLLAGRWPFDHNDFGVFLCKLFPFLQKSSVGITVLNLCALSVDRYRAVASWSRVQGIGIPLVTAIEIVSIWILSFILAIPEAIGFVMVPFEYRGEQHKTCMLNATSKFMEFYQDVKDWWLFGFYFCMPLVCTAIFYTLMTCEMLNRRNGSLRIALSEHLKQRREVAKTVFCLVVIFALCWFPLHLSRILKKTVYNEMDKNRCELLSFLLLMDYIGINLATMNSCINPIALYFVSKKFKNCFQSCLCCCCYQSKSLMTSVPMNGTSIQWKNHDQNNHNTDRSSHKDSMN", "assay": "Competition radioligand binding assay, [125I]-ET-1, Ltk- cells expressing human ETA R (HERBA A)", "conditions": "Ltk- cell membranes, 40 pM [125I]-ET-1, 2 hours at 37° C", "experimental": "(§1) The following cultured cells were used in binding experiments: CHO-K1 cells expressing recombinant human ETB R (HERBA B), or Ltk^- cells expressing human ETA R (HERBA A). […] Membranes were prepared from cultured cells by lysing cells in cold lysis buffer (5 mM HEPES, 2 mM EDTA, pH 7.4) and homogenizing with a Dounce \"A\" homogenizer. All of the homogenates were centrifuged at 30,000×g for 20 minutes at 4° C. Membrane pellets were resuspended in cold buffer containing 20 mM Tris, 2 mM EDTA, 200 μM Pefablock, 10 μM phosphoramidon, 10 μM leupeptin, and 1 μM pepstatin (pH 7.4) and frozen at -80° C. until use. Radioligand and competing ligands were prepared in binding buffer containing 20 mM Tris, 2 mM EDTA, and 0.1% BSA.\n(§2) The assay was terminated by filtration over Whatman GF/B filters that were presoaked with 50 mM Tris, pH 7.4, containing 0.2% BSA and 100 μM bacitracin. […] binding was defined as total binding minus nonspecific binding."}, "[7]": {"molecular_target": "T2, human ETB R (Homo sapiens, UniProt P24530)", "T2 construct": "expressed in transfected cells; host or cells: CHO-K1 cells (membranes)", "T2 sequence (P24530 27-442)": "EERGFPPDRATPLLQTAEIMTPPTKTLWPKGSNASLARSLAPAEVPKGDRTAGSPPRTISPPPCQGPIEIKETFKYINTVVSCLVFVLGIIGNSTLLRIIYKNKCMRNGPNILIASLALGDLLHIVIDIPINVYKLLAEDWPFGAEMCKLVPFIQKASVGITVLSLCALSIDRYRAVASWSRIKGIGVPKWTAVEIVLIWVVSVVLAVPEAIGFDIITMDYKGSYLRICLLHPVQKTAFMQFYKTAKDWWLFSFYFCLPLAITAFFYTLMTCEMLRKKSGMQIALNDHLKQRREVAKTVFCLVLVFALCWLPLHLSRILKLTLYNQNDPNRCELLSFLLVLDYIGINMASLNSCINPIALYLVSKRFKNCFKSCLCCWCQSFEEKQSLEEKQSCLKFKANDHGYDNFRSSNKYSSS", "assay": "Competition radioligand binding assay, [125I]-ET-1, CHO-K1 cells expressing recombinant human ETB R (HERBA B)", "conditions": "CHO-K1 cell membranes, 40 pM [125I]-ET-1, 2 hours at 37° C", "experimental": "as §1, §2"}, "[8]": {"test_system": "prostate smooth muscle", "conditions": "in vivo; cited from earlier work"}, "[9]": {"test_system": "middle cerebral artery occlusion", "conditions": "cats, IV; cited from earlier work"}, "[10]": {"test_system": "early cerebral vasospasm", "conditions": "rat SAH; cited from earlier work"}, "[11]": {"test_system": "neointima formation", "conditions": "rats, carotid artery balloon angioplasty; cited from earlier work"}, "[12]": {"test_system": "basilar artery vasoconstriction", "conditions": "canine two-hemorrhage model of SAH, after 7 days; cited from earlier work"}, "[13]": {"test_system": "small intestinal mucosa", "conditions": "rats, local intra-arterial; cited from earlier work"}, "[14]": {"test_system": "liver", "conditions": "cited from earlier work"}, "[15]": {"test_system": "isolated cerebral arterioles", "conditions": "cited from earlier work"}}, "note": "Where a SMILES comes first, the peptide text is derived from it. [ ]: non-standard residue; d: D form."}
{"compound": "CC(C)C[C@@H]1NC(=O)[C@@H](C(C)C)NC(=O)[C@@H]2CCCN2C(=O)[C@@H](CC(=O)O)NC(=O)[C@@H](Cc2c[nH]c3ccccc23)NC1=O", "note": "[BQ-123] (cyclo(L[dW][dD]P[dV]))", "values": [{"measurement": "increase in pulmonary vascular resistance and pulmonary arterial pressure", "setting": "[1]", "value": "lowering the increase in pulmonary vascular resistance and pulmonary arterial pressure"}, {"measurement": "early cerebral vasospasm following SAH", "setting": "[2]", "value": "prevent early cerebral vasospasm"}]}
{"compound": "COc1ccccc1Oc1c(NS(=O)(=O)c2ccc(C(C)(C)C)cc2)nc(-c2ncccn2)nc1OCCO", "note": "[Bosentan]", "values": [{"measurement": "ET-1-induced changes in gastric mucosal hemodynamics and ET-1-induced gastric ulceration", "setting": "[3]", "value": "antagonist toward the ET-1-induced changes in gastric mucosal hemodynamics as well as on ET-1-induced gastric ulceration"}, {"measurement": "efficacy in models of acute renal ischemia", "setting": "[4]", "value": "effective in models of acute renal ischemia"}, {"measurement": "increase in pulmonary vascular resistance and pulmonary arterial pressure", "setting": "[1]", "value": "lowering the increase in pulmonary vascular resistance and pulmonary arterial pressure"}, {"measurement": "cardiac performance", "setting": "[5]", "value": "improve cardiac performance"}]}
{"compound": "COc1ccc(C(=O)/C(Cc2cc(OC)c(OC)c(OC)c2)=C(/C(=O)O)c2ccc3c(c2)OCO3)cc1", "note": "[Example 1, (E)-2-Benzo[1,3]dioxol-5-yl-4-(4-methoxy-phenyl)-4-oxo-3-(3,4,5-trimethoxy-benzyl)-but-2-enoic acid]", "values": [{"measurement": "IC50", "setting": "[6]", "value": 0.065, "unit": "µM"}, {"measurement": "IC50", "setting": "[7]", "value": "> 2.5", "unit": "µM"}]}
{"compound": "COc1ccc(/C(C(=O)O)=C(/Cc2ccc3c(c2)OCO3)C(=O)c2cc(OC)c(OC)c(OC)c2)cc1", "note": "[Example 2, (E)-3-Benzo[1,3]dioxol-5-ylmethyl-2-(4-methoxy-phenyl)-4-oxo-4-(3,4,5-trimethoxy-phenyl)-but-2-enoic acid]", "values": [{"measurement": "IC50", "setting": "[6]", "value": 0.058, "unit": "µM"}, {"measurement": "IC50", "setting": "[7]", "value": 10, "unit": "µM"}]}
{"compound": "CCOc1ccc(C(=O)/C(Cc2cc(OC)c(OC)c(OC)c2)=C(/C(=O)O)c2cc(OC)c3c(c2)OCO3)cc1C", "note": "[Example 3]", "values": [{"measurement": "IC50", "setting": "[6]", "value": 0.07, "unit": "µM"}, {"measurement": "IC50", "setting": "[7]", "value": "> 2.5", "unit": "µM"}]}
{"compound": "COc1ccc(C2(O)OC(=O)C(c3ccc4c(c3)OCO4)=C2Cc2ccccc2)cc1", "note": "(stereo not drawn) [PD 155080]", "values": [{"measurement": "prostate smooth muscle function", "setting": "[8]", "value": "mediate prostate smooth muscle function in vivo"}]}
{"compound": "COc1ccc(C2(O)OC(=O)C(c3ccc4c(c3)OCO4)=C2Cc2cc(OC)c(OC)c(OC)c2)cc1", "note": "(stereo not drawn) [PD 156707]", "values": [{"measurement": "increase in pulmonary vascular resistance and pulmonary arterial pressure", "setting": "[1]", "value": "lowering the increase in pulmonary vascular resistance and pulmonary arterial pressure"}, {"measurement": "volume of ischemic damage in the cerebral hemisphere", "setting": "[9]", "value": "significantly reduced"}]}
{"compound": "COc1cccc(Oc2c(NS(=O)(=O)c3ccc(C(C)(C)C)cc3)ncnc2OCCO)c1", "note": "[Ro 46-2005]", "values": [{"measurement": "systemic arterial blood pressure", "setting": "[10]", "value": "no significant effect on systemic arterial blood pressure"}]}
{"compound": "CCCOc1ccc2c(c1)[C@@H](c1ccc(OC)cc1OCC(=O)O)[C@H](C(=O)O)[C@H]2c1ccc2c(c1)OCO2", "note": "[SB 209670]", "values": [{"measurement": "neointima formation", "setting": "[11]", "value": "ameliorate neointima formation"}]}
{"compound": "FR 139317", "values": [{"measurement": "vasoconstriction of the basilar artery", "setting": "[12]", "value": "significantly inhibited the vasoconstriction of the basilar artery"}]}
{"compound": "endothelin", "values": [{"measurement": "small intestinal mucosal damage", "setting": "[13]", "value": "induce small intestinal mucosal damage in rats in a dose-dependent manner"}, {"measurement": "hepatic vasculature vasoconstriction and hepatic glucose output", "setting": "[14]", "value": "sustained vasoconstriction of the hepatic vasculature and a significant increase in hepatic glucose output"}, {"measurement": "vasoconstrictor action on isolated cerebral arterioles", "setting": "[15]", "value": "potent vasoconstrictor action"}]}
